Test results taken from US12419898B2, “Synergistic composition for maintenance of healthy balance of microflora” (Kimberly-Clark Worldwide, Inc., priority 2015, dated 2025).

Tested on: L. crispatus and E. coli
Test: Therapeutic effect protocol: L. crispatus / E. coli co-culture in LAPT-g media supplemented with therapeutic agents
Assay type: cell-based
Conditions: anaerobic, 37° C., measured 36 hours after inoculation, agent w/vol % as given per sample
Experimental: Therapeutic Effect Protocol
Colonies of L. crispatus and E. coli were prepared as follows. A colony of L. crispatus was transferred to 7 ml MRS broth and incubated anaerobically (using BD GasPak EZ anaerobe container system with indicator) at 37° C. without shaking for 18-20 hours. A colony of E. coli was transferred to 5 ml TSB broth and incubated aerobically (shaking at 100 rpm) at 37° C. for 18-20 hours.
Colonies were then inoculated as follows. Bacterial cultures were gently vortexed and 1 mL of each culture was transferred to a corresponding 2.0 mL micro-centrifuge tube and then centrifuged for two minutes at 14,500 rpm. The cultural supernatant was removed and the cell pellet was re-suspended in 1 mL of 0.95% (wt/vol %) saline. The re-suspended colony was then centrifuged for two minutes at 14,500 rpms and the supernatant was removed. For L. crispatus, the pellet was re-suspended in 1 mL of 0.95% saline to achieve ˜10^7-10^8 cfu/mL. For E. coli the pellet was re-suspended in 1 mL of 0.95% saline to achieve ˜10^8-10^9 cfu/mL.
Media were prepared as follows.
All of the ingredients in Table 1 were combined and the pH was adjusted to 6.5. The media were then autoclaved for 20 minutes at 125° C. To evaluate the effect of various therapeutic agents on the growth of bacteria the LAPT-g media, prepared as described above, was supplemented with various therapeutic agents to a final test concentration between 0.1 and 1.0%.
Five milliliters (5 mL) of each medium was transferred to a test tube in duplicates for subsequent inoculation. A master mixture of L. crispatus and E. coli, prepared as described above, was prepared in 1,000:1 ratio. Each (5 ml) test tube was inoculated with the master mixture to give 10^5-10^6 total CFU L. crispatus and 100-1,000 total CFU E. coli per tube.
To establish a negative control, one tube was vortexed and 100 μL was removed to determine the initial cell concentrations by serial dilutions and plating (2 plates per dilution). L. crispatus is selected on MRS agar plates incubated anaerobically at 37° C. for two days. E. coli is selected on TSA plates incubated aerobically at 37° C. for one day. The co-cultures were incubated in an anaerobic container with BD GasPaks at 37° C. for 36 hours.
The effect of the carbon source on the ratio of L. crispatus to E. coli was measured 36 hours after inoculation. The co-culture tube was vortexed and 100 μL was removed to determine the final cell concentrations by serial dilutions and plating (2 plates per dilution). L. crispatus is selected on MRS agar plates incubated anaerobically at 37° C. for two days. E. coli is selected on TSA plates incubated aerobically at 37° C. for one day.
Inventive samples were prepared by supplementing LAPT-g media, prepared as described above, with various therapeutic agents as described in Table 2, below. The therapeutic effect of the formulation was then measured using the assay described above in the Test Methods section above. The therapeutic effect is summarized below as the ratio of L. crispatus to E. coi.

Structure (SMILES)	L. crispatus/E. coli ratio
OC[C@H]1O[C@@H](O[C@@H]2[C@@H](CO)OC(O)(CO)[C@H]2O)[C@H](O)[C@@H](O)[C@H]1O (mixture of isomers) [Sample 28, Lactulose]	3.9
O=CC[C@H](O)[C@H](O)CO [Sample 21, 2-Deoxy-D-Ribose]	1.7
CO[C@H]1O[C@H](CO)[C@@H](O)[C@H](O)[C@H]1O [Sample 22, α-Methyl-D-Glucoside]	3
OC[C@H]1O[C@@H]2O[C@H]3[C@H](O)[C@@H](O)[C@@H](O[C@H]4[C@H](O)[C@@H](O)[C@@H](O[C@H]5[C@H](O)[C@@H](O)[C@@H](O[C@H]6[C@H](O)[C@@H](O)[C@@H](O[C@H]7[C@H](O)[C@@H](O)[C@@H](O[C@H]1[C@H](O)[C@H]2O)O[C@@H]7CO)O[C@@H]6CO)O[C@@H]5CO)O[C@@H]4CO)O[C@@H]3CO [Sample 23, α-Cyclodextrin]	6.5
O=C[C@@H](O)[C@H](O)[C@H](O)CO [Sample 24, D-Arabinose]	2.2
O.O.OC[C@H]1O[C@H](O[C@H]2O[C@H](CO)[C@@H](O)[C@H](O)[C@H]2O)[C@H](O)[C@@H](O)[C@@H]1O [Sample 26, D-Trehalose]	30.1
O=C(O)CC(O)C(=O)O (centres unmarked) [Sample 29, Malic acid]	30.7
OCc1ccccc1O[C@@H]1O[C@H](CO)[C@@H](O)[C@H](O)[C@H]1O [Sample 32, Salicin]	1.5
